Measurements taken from ChEMBL document CHEMBL1201862, “PubChem BioAssay data set” (2004).
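All cell lines were grown in 96-well plates and treated with compound for 48 hours. GI50 is the concentration that inhibits growth by half.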 The source made the active and inactive calls. Rule as the data show it: active = GI50 up to about 1.1 µM and inactive = higher.

Legend:
Experiment in all cases: NCI-60 cell line screen, 48 h
A498 = test system: A498
A549 = test system: A549
ACHN = test system: ACHN
CAKI-1 = test system: CAKI-1
CCRF-CEM = test system: CCRF-CEM
COLO 205 = test system: COLO 205
DU-145 = test system: DU-145
EKVX = test system: EKVX
HCC 2998 = test system: HCC 2998
HCT-116 = test system: HCT-116
HCT-15 = test system: HCT-15
HL-60 = test system: HL-60
HOP-62 = test system: HOP-62
HT-29 = test system: HT-29
Hs-578T = test system: Hs-578T
IGROV-1 = test system: IGROV-1
K562 = test system: K562
LOX IMVI = test system: LOX IMVI
M14 = test system: M14
MCF7 = test system: MCF7
MDA-MB-231 = test system: MDA-MB-231
MDA-MB-435 = test system: MDA-MB-435
MDA-N = test system: MDA-N
MOLT-4 = test system: MOLT-4
Malme-3M = test system: Malme-3M
NCI-H226 = test system: NCI-H226
NCI-H23 = test system: NCI-H23
NCI-H460 = test system: NCI-H460
NCI-H522 = test system: NCI-H522
NCI/ADR-RES = test system: NCI/ADR-RES
OVCAR-4 = test system: OVCAR-4
OVCAR-5 = test system: OVCAR-5
OVCAR-8 = test system: OVCAR-8
PC-3 = test system: PC-3
RPMI-8226 = test system: RPMI-8226
RXF 393 = test system: RXF 393
SF-268 = test system: SF-268
SF-539 = test system: SF-539
SK-MEL-28 = test system: SK-MEL-28
SK-MEL-2 = test system: SK-MEL-2
SK-MEL-5 = test system: SK-MEL-5
SK-OV-3 = test system: SK-OV-3
SN12C = test system: SN12C
SNB-19 = test system: SNB-19
SNB-75 = test system: SNB-75
SR = test system: SR
SW-620 = test system: SW-620
T47D = test system: T47D
TK-10 = test system: TK-10
U-251 = test system: U-251
UACC-62 = test system: UACC-62
UO-31 = test system: UO-31
786-0 = test system: 786-0
HOP-92 = test system: HOP-92
KM12 = test system: KM12
OVCAR-3 = test system: OVCAR-3
SF-295 = test system: SF-295
UACC-257 = test system: UACC-257

For `Cc1nc2[nH]ncn2c(=O)c1CCO`, the GI50 (A498) was > 10 µM (inactive), the GI50 (A549) was > 10 µM (inactive) and the GI50 (ACHN) was > 10 µM (inactive). The GI50 (CAKI-1) was > 10 µM (inactive), the GI50 (CCRF-CEM) was > 10 µM (inactive) and the GI50 (COLO 205) was > 10 µM (inactive). The GI50 (DU-145) was > 10 µM (inactive), the GI50 (EKVX) was > 10 µM (inactive) and the GI50 (HCC 2998) was > 10 µM (inactive). For the same compound, the GI50 (HCT-116) was > 10 µM (inactive), the GI50 (HCT-15) was greater than 10 µM and the GI50 (HL-60) was > 10 µM (inactive). The GI50 (HOP-62) was > 10 µM (inactive), the GI50 (HT-29) was > 10 µM (inactive) and the GI50 (Hs-578T) was > 10 µM (inactive). For the same compound, the GI50 (IGROV-1) was > 10 µM (inactive), the GI50 (K562) was > 10 µM (inactive) and the GI50 (LOX IMVI) was > 10 µM (inactive). For the same compound, the GI50 (M14) was > 10 µM (inactive), the GI50 (MCF7) was > 10 µM (inactive) and the GI50 (MDA-MB-231) was > 10 µM (inactive). For the same compound, the GI50 (MDA-MB-435) was > 10 µM (inactive), the GI50 (MDA-N) was > 10 µM (inactive) and the GI50 (MOLT-4) was > 10 µM (inactive). The GI50 (Malme-3M) was > 10 µM (inactive), the GI50 (NCI-H226) was > 10 µM (inactive) and the GI50 (NCI-H23) was > 10 µM (inactive). The GI50 (NCI-H460) was > 10 µM (inactive), the GI50 (NCI-H522) was > 10 µM (inactive) and the GI50 (NCI/ADR-RES) was > 10 µM (inactive). The GI50 (OVCAR-4) was > 10 µM (inactive), the GI50 (OVCAR-5) was > 10 µM (inactive) and the GI50 (OVCAR-8) was > 10 µM (inactive). The GI50 (PC-3) was > 10 µM (inactive), the GI50 (RPMI-8226) was > 10 µM (inactive) and the GI50 (RXF 393) was > 10 µM (inactive). For the same compound, the GI50 (SF-268) was > 10 µM (inactive), the GI50 (SF-539) was > 10 µM (inactive) and the GI50 (SK-MEL-28) was 2.56 µM (inactive). The GI50 (SK-MEL-2) was > 10 µM (inactive), the GI50 (SK-MEL-5) was > 10 µM (inactive) and the GI50 (SK-OV-3) was > 10 µM (inactive). The GI50 (SN12C) was > 10 µM (inactive), the GI50 (SNB-19) was > 10 µM (inactive) and the GI50 (SNB-75) was > 10 µM (inactive). For the same compound, the GI50 (SR) was > 10 µM (inactive), the GI50 (SW-620) was > 10 µM (inactive) and the GI50 (T47D) was > 10 µM (inactive). For the same compound, the GI50 (TK-10) was > 10 µM (inactive), the GI50 (U-251) was > 10 µM (inactive) and the GI50 (UACC-62) was > 10 µM (inactive). The GI50 (UO-31) was > 10 µM (inactive).
With `O=C1OC([C@H](O)c2cccnc2)c2ccccc21` (stereo partly drawn) the GI50 (786-0) was > 10 µM (inactive), the GI50 (A549) was > 10 µM (inactive) and the GI50 (ACHN) was > 10 µM (inactive). For the same compound, the GI50 (CAKI-1) was > 10 µM (inactive), the GI50 (CCRF-CEM) was > 10 µM (inactive) and the GI50 (COLO 205) was > 10 µM (inactive). The GI50 (DU-145) was > 10 µM (inactive), the GI50 (EKVX) was > 10 µM (inactive) and the GI50 (HCC 2998) was > 10 µM (inactive). For the same compound, the GI50 (HCT-116) was > 10 µM (inactive), the GI50 (HCT-15) was greater than 10 µM and the GI50 (HL-60) was > 10 µM (inactive). For the same compound, the GI50 (HOP-62) was > 10 µM (inactive), the GI50 (HOP-92) was > 10 µM (inactive) and the GI50 (HT-29) was > 10 µM (inactive). For the same compound, the GI50 (Hs-578T) was > 10 µM (inactive), the GI50 (IGROV-1) was > 10 µM (inactive) and the GI50 (K562) was > 10 µM (inactive). For the same compound, the GI50 (KM12) was > 10 µM (inactive), the GI50 (LOX IMVI) was > 10 µM (inactive) and the GI50 (M14) was > 10 µM (inactive). The GI50 (MCF7) was > 10 µM (inactive), the GI50 (MDA-MB-231) was > 10 µM (inactive) and the GI50 (MDA-MB-435) was > 10 µM (inactive). The GI50 (MDA-N) was > 10 µM (inactive), the GI50 (MOLT-4) was > 10 µM (inactive) and the GI50 (NCI-H226) was > 10 µM (inactive). For the same compound, the GI50 (NCI-H23) was > 10 µM (inactive), the GI50 (NCI-H460) was > 10 µM (inactive) and the GI50 (NCI-H522) was > 10 µM (inactive). For the same compound, the GI50 (NCI/ADR-RES) was > 10 µM (inactive), the GI50 (OVCAR-3) was > 10 µM (inactive) and the GI50 (OVCAR-4) was > 10 µM (inactive). For the same compound, the GI50 (OVCAR-5) was > 10 µM (inactive), the GI50 (OVCAR-8) was > 10 µM (inactive) and the GI50 (PC-3) was > 10 µM (inactive). For the same compound, the GI50 (RPMI-8226) was > 10 µM (inactive), the GI50 (RXF 393) was > 10 µM (inactive) and the GI50 (SF-268) was > 10 µM (inactive). The GI50 (SF-295) was > 10 µM (inactive), the GI50 (SF-539) was > 10 µM (inactive) and the GI50 (SK-MEL-28) was > 10 µM (inactive). For the same compound, the GI50 (SK-MEL-2) was > 10 µM (inactive), the GI50 (SK-MEL-5) was > 10 µM (inactive) and the GI50 (SK-OV-3) was > 10 µM (inactive). The GI50 (SN12C) was > 10 µM (inactive), the GI50 (SNB-19) was > 10 µM (inactive) and the GI50 (SNB-75) was > 10 µM (inactive). For the same compound, the GI50 (SR) was > 10 µM (inactive), the GI50 (SW-620) was > 10 µM (inactive) and the GI50 (T47D) was > 10 µM (inactive). For the same compound, the GI50 (TK-10) was > 10 µM (inactive), the GI50 (U-251) was > 10 µM (inactive) and the GI50 (UACC-257) was > 10 µM (inactive). The GI50 (UACC-62) was > 10 µM (inactive) and the GI50 (UO-31) was > 10 µM (inactive).
